# Test results as given in ChEMBL document CHEMBL2331454, “Synthesis and structure-activity relationship studies of novel dual inhibitors of soluble epoxide hydrolase and 5-lipoxygenase” (J Med Chem, 2013).
# Target: Soluble epoxide hydrolase (Homo sapiens)
# Experiment: Inhibition of human recombinant soluble epoxide hydrolase expressed in Escherichia coli after 30 mins by PHOME-based fluorescence assay
row,IC50 [nM],Compound
1,649,COc1cc(-c2nc3ccc(F)cn3c2NC2CCCCC2)ccc1OCCCNC(=O)Nc1ccc(C(F)(F)F)cc1
2,614,COc1cc(-c2nc3ccc(C)cn3c2NC2CCCC2)ccc1OCCCNC(=O)Nc1ccc(C(F)(F)F)cc1
3,190,COc1cc(-c2nc3ccc(C)cn3c2NC2CCCCC2)ccc1OCCCNC(=O)NC1CCCCC1
4,439,COc1cc(-c2nc3ccc(Cl)cn3c2NC(C)C)ccc1OCCCNC(=O)Nc1ccc(C(F)(F)F)cc1
5,1110,COc1ccc(-c2nc3ccc(C)cn3c2NC2CCCCC2)cc1OCCCNC(=O)Nc1ccc(OC(F)(F)F)cc1
6,192,Cc1ccc2nc(-c3ccc(OCCCNC(=O)Nc4ccc(C(F)(F)F)cc4)c(Cl)c3)c(NC3CCCCC3)n2c1
7,620,COc1cc(-c2nc3ccc(C)cn3c2NC(C)C)ccc1OCCCNC(=O)Nc1ccc(C(F)(F)F)cc1
8,116,COc1cc(-c2nc3ccc(C)cn3c2NC2CCCCC2)ccc1OCCCNC(=O)Nc1ccc(OC(F)(F)F)cc1
9,439,COc1cc(-c2nc3ccc(C)cn3c2NC2CCCCC2)ccc1OCCCNC(=O)Nc1ccc(C(F)(F)F)cc1
10,336,COc1cc(-c2nc3ccc(Cl)cn3c2NC2CCCCC2)ccc1OCCCNC(=O)Nc1ccc(C(F)(F)F)cc1
11,480,COc1cc(-c2nc3ccc(F)cn3c2NC2CCCC2)ccc1OCCCNC(=O)Nc1ccc(C(F)(F)F)cc1
12,2240,O=C(Nc1ccc(Cl)cc1)N1CCC(CO)CC1
13,696,COc1cc(-c2nc3ccc(F)cn3c2NC2CCCCC2)ccc1OCCCNC(=O)Nc1ccc(OC(F)(F)F)cc1
14,473,COc1cc(-c2nc3ccc(C)cn3c2NC2CCCC2)ccc1OCCCNC(=O)Nc1ccc(OC(F)(F)F)cc1
